Source: US20050154032A1, “Methods of using zonisamide as an adjunctive therapy for partial seizures” (Eisai Co., Ltd, priority 2004, published 2005)

Assays:
[1] = cited from earlier work; for hyperammonemia as adverse event: literature
[2] = upon reaching a stable dose or following dosage adjustment; cited from earlier work
[3] = tested on: hepatic enzyme; settings: cited from earlier work
[4] = tested on: GABA/benzodiazepine receptor ionophore complex; settings: in vitro; cited from earlier work
[5] = tested on: sodium channels; settings: in vitro; cited from earlier work
[6] = tested on: cultured mouse spinal cord neurons; settings: 10-30 μg/mL; cited from earlier work
[7] = tested on: rat hippocampal slices; settings: 10-30 μg/mL; cited from earlier work
[8] = tested on: dopaminergic and serotonergic neurotransmission; settings: in vivo microdialysis; cited from earlier work
[9] = tested on: carbonic anhydrase; settings: fraction of acetazolamide inhibition; cited from earlier work
[10] = human, in vivo
Source text: The pharmacovigilance data that were collected, reviewed and analyzed provided the following information in respect of the incidence of hyperammonemia. A total of 4 cases fulfilled the criteria of potential hyperammonemia cases. These cases were reviewed in detail for evaluation of possible safety signals. Two US cases were reported as either high ammonia levels or increased ammonia. Two Japanese cases were reported as hyperammonemia.
Of these, two (2) cases (both ZON1000262 and ZON1000346) had strong confounding factors and seem to-be unrelated to zonisamide, but the possibility of zonisamide involvement cannot be completely excluded. The two cases of hyperammonemia originated from Japan and both involved adult patients. Both cases were serious and described as life-threatening. […]
Estimates of exposure, based upon retail and mail order prescriptions, indicate that the number of unique patients taking zonisamide capsules in the U.S. is about 37,276 (total prescriptions per year/average number of prescriptions per patient per year less a calculated percentage decrease based on estimated annual dropouts) in the time between approval in 2000 and December 2002. […] Similarly, the incidences of NMS estimated herein are unlikely to be higher than calculated. Based on the exposure data and number of hyperammonemia cases, the incidence of hyperammonemia is calculated to be about […].

[11] = tested on: T-type Ca^2+ currents; settings: in vitro; cited from earlier work

Row | SMILES | hyperammonemia as adverse event [1] | cases of hyperammonemia associated with the drug ([1]; since 1979 (O'Neil et al. 2002)) | time required to achieve steady-state levels [2] | hepatic enzyme induction [3] | binding to GABA/benzodiazepine receptor ionophore complex [4] | effect on sodium channels [5] | postsynaptic GABA or glutamate responses [6] | synaptically-driven electrical activity [6] | neuronal or glial uptake of [3H]-GABA [7] | dopaminergic and serotonergic neurotransmission [8] | carbonic anhydrase inhibition compared to acetazolamide [9] | cases fulfilling the criteria of potential hyperammonemia cases [10] | incidence of hyperammonemia [10] | effect on voltage-dependent, transient inward currents (T-type Ca2+ currents) [11]
1 | NC(=O)N1c2ccccc2C=Cc2ccccc21 [carbamazepine] | known to cause hyperammonemia |  |  |  |  |  |  |  |  |  |  |  |  | 
2 | CCCC(CCC)C(=O)O [valproate] | known to cause hyperammonemia | more than 30 cases |  |  |  |  |  |  |  |  |  |  |  | 
3 | NS(=O)(=O)Cc1noc2ccccc12 [zonisamide, 1,2-benzisoxazole-3-methanesulfonamide] |  |  | up to two weeks | not known to be a hepatic enzyme inducer | binds to the GABA/benzodiazepine receptor ionophore complex in an allosteric fashion | blocks sodium channels | without affecting | suppresses | without affecting | facilitates | 1/50 | 4 cases | about 1:1,222,453 | reduces
